Several values for one entry are separate records, joined by “and”; a condition that tells them apart may be missing. Equal values may be shown once. Entries after “also recorded” stand apart in the source; their conditions may differ. Read-outs that look alike come from different tables or passages of the source. No end group written: not given here.
Tests used:
[1] = tested on: clade 1 FaNaCs; conditions: cited from earlier work; for sensitivity to native peptides (in words): extant clade 1 FaNaCs ref 9,27
[2] = tested on: A. kurodai FaNaC; assay: Two-electrode voltage clamp of oocytes expressing A. kurodai FaNaC; type: cell-based, Aplysia kurodai; conditions: for peptide potency/activity compared to FMRFa (in words): Fig. 2 A
From the text: (§1) A. kurodai FaNaC (NCBI GenBank: AB206707.1) and M. fuliginosus FaNaC1 (NCBI GenBank: ON156825.1) cDNAs in tailored pSP64 plasmid vectors including Xenopus laevis UTRs and poly(A) sequences have been described at length previously ([9],[16]). A. kurodai FaNaC F188Y, F188tag (amber stop codon), F453Y, and F453tag mutants were generated by site-directed mutagenesis as detailed in ([17]) with custom primers (Merck) and PCR with Phusion High-Fidelity DNA polymerase (Thermo Fisher). All coding sequences were confirmed by Sanger sequencing (Genewiz). Plasmid DNA was linearized by digesting with EcoRI (Thermo Fisher) and purified with the DNA Clean & Concentrator Kit (Zymo). mRNA was then transcribed using the mMESSAGE mMACHINE SP6 Transcription Kit (Thermo Fisher) and purified with the RNeasy Mini Kit (Qiagen).
(§2) X. laevis frog oocytes were shipped from Ecocyte Bioscience, Germany, and stored at 18°C in 50% Leibovitz’s L-15 medium (Gibco) supplemented with additional 0.25 mg/mL gentamicin, 1 mM L-glutamine, and 15 mM HEPES, pH 7.6.
(§3) For wild-type (WT) and conventional mutant channels, oocytes were injected with 40 nL of 120 ng/μL FaNaC mRNA via glass micropipettes backfilled with mineral oil, using a Nanoliter2010 injector (World Precision Instruments). For the expression of noncanonical mutant channels, aminoacylated tRNA was first resuspended in 2 μL of water and deprotected by 5 min in UV light via a fan-cooled coil of 365-nm realUV LED strip lights (Waveform Lighting). Deprotected aminoacylated tRNA was then mixed 2:1 with 700 ng/μL UAG mutant FaNaC mRNA, and 40 nL of this mix was injected into oocytes.
(§4) Two-electrode voltage clamp experiments were performed 24–36 h after injection. The oocyte was placed in an RC-3Z bath (Warner Instruments) and perfused continuously with ND96 solution (NaCl 96 mM, KCl 2 mM, CaCl2 1.8 mM, MgCl2 1 mM, HEPES 5 mM, pH 7.5 with NaOH). In experiments without Ca^2+, CaCl2 was replaced with BaCl2, and oocytes were injected with 40 nL of water or 25 mM EGTA 10–45 min before recording. In experiments probing increased Ca^2+ concentrations, extracellular solutions contained NaCl 140 mM, HEPES 10 mM, CaCl2 1 mM, pH 7.5 with NaOH; or NMDG-Cl 126.5 mM, HEPES 10 mM, CaCl2 10 mM, pH 7.5 with NaOH (leaving a small amount of Na^+ in the final solution), based on previous work ([21]). ND96 (or the latter solutions) alone or containing peptides was rapidly exchanged via a VCS-8 pinch-valve control perfusion system (Warner Instruments). […] Oocytes were clamped at −80 mV for all experiments with an Oocyte Clamp OC-725D amplifier (Warner Instruments) and Axon Digidata 1550B digitizer ([…]). Data were recorded at 1000 Hz and filtered at 100–200 Hz. 50 Hz noise was eliminated with a Hum Bug (Digitimer). In measuring reversal potentials in normal and high Ca^2+ solutions, 150 ms voltage ramps from −80 mV to 80 mV were applied continuously, before and during FMRFa application. The resulting “current ramp” in the absence of FMRFa was subtracted from that during peak FMRFa-gated current to plot the FMRFa-induced current-voltage relationship.
(§5) Current amplitude was measured in Clampfit 11.1 (Molecular Devices), and subsequent data analyses were performed in Prism v9 (GraphPad Software). For peptide concentration-response data, peak current amplitude was normalized to maximum, plotted against peptide concentration, and fitted with four-parameter nonlinear regression (Prism v9) for each oocyte. These were averaged to give the reported means ± SE in the main text. For display in figures, a single fit to the average normalized responses (±SE) is shown. […] Therefore, in most M. fuliginosus/LMRFa experiments only, just two LMRFa applications were used: one test concentration and one 10 μM for normalization. This yielded n = 3 oocytes for responses to different concentrations, against which a single curve was fitted and half-maximal effective concentration (EC50) was calculated. […]

[3] = tested on: M. fuliginosus FaNaC1; assay: Two-electrode voltage clamp of oocytes expressing M. fuliginosus FaNaC1; type: cell-based, Malacoceros fuliginosus; conditions: for peptide potency/activity compared to FMRFa (in words): Fig. 2 A
From the text: as §1, §2, §3, §4, §5

[4] = target: Malacoceros fuliginosus FaNaC1, wild type (Malacoceros fuliginosus)
[5] = tested on: A. kurodai FaNaC F188Phe; assay: Two-electrode voltage clamp, nonsense suppression mutant F188Phe; type: cell-based, Aplysia kurodai
From the text: as §1
(§6) Noncanonical amino acids were incorporated into positions F188 and F453 of A. kurodai FaNaC via a nonsense suppression approach using an amber stop codon (TAG/UAG) and modified Tetrahymena thermophila Gln73 tRNA (THG73) ([19],[20]). […]
(§7) Two-electrode voltage clamp experiments were performed 24–36 h after injection. […] Data were recorded at 1000 Hz and filtered at 100–200 Hz. […]
(§8) Current amplitude was measured in Clampfit 11.1 (Molecular Devices), and subsequent data analyses were performed in Prism v9 (GraphPad Software). […]

[6] = tested on: A. kurodai FaNaC F188Y; assay: Two-electrode voltage clamp, conventional mutant F188Y; type: cell-based, Aplysia kurodai
From the text: as §1, with “(Qiagen). […]” for “(Qiagen).”
as §7
(§9) Current amplitude was measured in Clampfit 11.1 (Molecular Devices), and subsequent data analyses were performed in Prism v9 (GraphPad Software). […] This yielded n = 3 oocytes for responses to different concentrations, against which a single curve was fitted and half-maximal effective concentration (EC50) was calculated. […]

[7] = tested on: A. kurodai FaNaC F188Cha; assay: Two-electrode voltage clamp, nonsense suppression mutant F188Cha; type: cell-based, Aplysia kurodai; conditions: concentrations up to 100 μM
From the text: as §1, §6, §7, §8

[8] = tested on: A. kurodai FaNaC F188hPhe; assay: Two-electrode voltage clamp, nonsense suppression mutant F188hPhe; type: cell-based, Aplysia kurodai; conditions: concentrations up to 100 μM
From the text: as §1, §6, §7, §8

[9] = tested on: A. kurodai FaNaC F453Phe; assay: Two-electrode voltage clamp, nonsense suppression mutant F453Phe; type: cell-based, Aplysia kurodai
From the text: as §1, §6, §7, §8

[10] = tested on: A. kurodai FaNaC F453Y; assay: Two-electrode voltage clamp, conventional mutant F453Y; type: cell-based, Aplysia kurodai
From the text: as §1, with “(Qiagen). […]” for “(Qiagen).”
as §7, §9

[11] = tested on: A. kurodai FaNaC F453hPhe; assay: Two-electrode voltage clamp, nonsense suppression mutant F453hPhe; type: cell-based, Aplysia kurodai
From the text: as §1, §6, §7, §8

[12] = tested on: A. kurodai FaNaC F453Cha; assay: Two-electrode voltage clamp, nonsense suppression mutant F453Cha; type: cell-based, Aplysia kurodai
From the text: as §1, §6, §7, §8

[13] = tested on: M. fuliginosus FaNaC1 position α3-F129 UAG mutant; assay: Two-electrode voltage clamp, nonsense suppression at F129 (UAG mutant mRNA and phenylalaninylated tRNA); type: cell-based, Malacoceros fuliginosus; conditions: UAG mutant mRNA and phenylalaninylated tRNA (not shown)
[14] = tested on: M. fuliginosus FaNaC1 F129 A/L/Q mutants; parameters: method as in PMID 38337033; conditions: conventional F129 A/L/Q mutants ref 15; cited from earlier work
[15] = tested on: Helix aspersa FaNaC; parameters: method as in PMID 9343851; conditions: stated as shared by A. kurodai FaNaC and H. aspersa FaNaC ref 27; cited from earlier work
[16] = tested on: clade 2 FaNaCs; conditions: extant clade 2 FaNaCs ref 9,23,27; cited from earlier work
[17] = target: Aplysia kurodai FMRFa-gated sodium channel (FaNaC), wild type (Aplysia kurodai)
[18] = target: Malacoceros fuliginosus FaNaC1, wild type (Malacoceros fuliginosus); remark: listed apart in the source
[19] = X. laevis oocytes, -80 mV, mean ± SE

FMKFa: FMRFa analog, R3 replaced with lysine; also a native peptide (FMKF-NH2)
sensitivity to native peptides (in words) [1]: sensitive | activation by peptide (in words) ([1]; various mollusk FaNaCs ref 7,9): activated

FVRFa: FMRFa analog, M2 replaced with valine (FVRF-NH2)
peptide potency/activity compared to FMRFa (in words) ([2]; X. laevis oocytes): significantly less potent than FMRFa | peptide potency/activity compared to FMRFa (in words) ([3]; X. laevis oocytes): no significant effect on potency

LMRFa: synthetic FMRFa analog, F1 replaced with smaller hydrophobic side chain (L) (LMRF-NH2)
peptide potency/activity compared to FMRFa (in words) ([2]; X. laevis oocytes): activated no current | deactivation after peptide application [3]: especially slow | peptide potency/activity compared to FMRFa (in words) ([3]; X. laevis oocytes): similarly to FMRFa

FMRAa: FMRFa analog, F4 replaced with alanine (FMRA-NH2)
peptide potency/activity compared to FMRFa (in words) ([3]; X. laevis oocytes): abolished peptide potency completely

FMRF-OMe: FMRF with C-terminal O-methylester
peptide potency/activity compared to FMRFa (in words) ([3]; X. laevis oocytes): drastically reduced activation

FMRVa: FMRFa analog, F4 replaced with valine (FMRV-NH2)
peptide potency/activity compared to FMRFa (in words) ([3]; X. laevis oocytes): did not significantly affect peptide potency

FMQFa: FMRFa analog, R3 replaced with glutamine (FMQF-NH2)
currents at 100 μM peptide ([2]; 100 μM): no currents | peptide potency/activity compared to FMRFa (in words) ([2]; X. laevis oocytes): total reduction in potency

SGFMRFa: FMRFa with N-terminal serine-glycine insertion (SGFMRF-NH2)
peptide potency/activity compared to FMRFa (in words) ([2]; X. laevis oocytes): abolished activity | peptide potency/activity compared to FMRFa (in words) ([3]; X. laevis oocytes): no effect

(F3-Phe)MRFa (peptide)
EC50 of current activation, two-electrode voltage clamp, X. laevis oocytes [4]: 0.011 µM

AMRFa: synthetic FMRFa analog, F1 replaced with smaller hydrophobic side chain (A) (AMRF-NH2)
peptide potency/activity compared to FMRFa (in words) ([2]; X. laevis oocytes): activated no current | peptide potency/activity compared to FMRFa (in words) ([3]; X. laevis oocytes): similarly to FMRFa

Ac-FMRFa: FMRFa with N-terminal acetylation
peptide potency/activity compared to FMRFa (in words) ([2]; X. laevis oocytes): little effect | peptide potency/activity compared to FMRFa (in words) ([3]; X. laevis oocytes): increased potency

H-Phe-Met-Arg-Phe-NH2 [FMRFa]
EC50 [2, 19]: 5.48 µM and 5.5 µM | EC50 [3, 19]: 0.35 ± 0.06 µM | FMRFa activation/potency (in words) [5]: decreased FMRFa potency; also recorded: activated by FMRFa at micromolar concentrations | FMRFa activation (in words) [6]: activated by FMRFa at micromolar concentrations | response to FMRFa (in words) [7]: little or no response | response to FMRFa (in words) [8]: little or no response | FMRFa potency compared to regular WT (in words) [9]: decreased FMRFa potency | FMRFa sensitivity (in words) [10]: abolished FMRFa sensitivity | FMRFa sensitivity (in words) [11]: relatively little effect on FMRFa sensitivity | FMRFa sensitivity (in words) [12]: relatively little effect on FMRFa sensitivity | FMRFa-gated currents (in words) [13]: no FMRFa-gated currents | sensitivity to FMRFa (in words) [14]: reduced sensitivity to FMRFa | EC50 [15]: 3 to 5 µM | sensitivity to native peptides (in words) [1]: sensitive | binding of native peptides (in words) [16]: bind

FKRFa: FMRFa analog, M2 replaced with lysine (FKRF-NH2)
peptide potency/activity compared to FMRFa (in words) ([2]; X. laevis oocytes): no activity | peptide potency/activity compared to FMRFa (in words) ([3]; X. laevis oocytes): no significant effect on potency

H-FMRF-NH2 [H-Phe-Met-Arg-Phe-NH2 (FMRFamide)]
EC50 of current activation, two-electrode voltage clamp, X. laevis oocytes [17]: 5.48 µM | EC50 of current activation, two-electrode voltage clamp, X. laevis oocytes [18]: 0.35 µM

Source: publication PMC11993918, “Flipped binding modes for the same agonist in closely related neuropeptide-gated ion channels” (Biophysical Journal, 2025)
